Results on 1 molecule are retold here after paper PMC11476419, “Analysis of Punicalin and Punicalagin Interaction with PDIA3 and PDIA1” (International Journal of Molecular Sciences, 2024).

Structures are written as SMILES.

Experiment [1] deals with T1, PDIA1 (Homo sapiens, UniProt P07237).
T1 construct: The mature human PDIA1 with an N-terminal His6x-tag was expressed and purified; His6 (N); made in house
Kind of experiment: Insulin turbidity assay, disulfide reductase activity. The class given is biochemical. Conditions: insulin substrate, PDIA1 800 nM, reducing conditions. On the procedure:
(§1) To further evaluate the inhibitory effect of punicalin and punicalagin on the enzymatic activity of the two proteins, we performed a different assay using insulin, a physiologically more appropriate substrate. The results obtained are reported in Figure 4 and show again a lesser inhibitory effect of punicalin compared to punicalagin, as observed with the glutathione-based assay.
PDI disulfide reductase activity was assayed by measuring the reduction of insulin catalyzed by PDIs with DTT. A 50 μM stock solution of each PDI was reduced using TCEP (5 mM final concentration) for 90 min at room temperature. […] After incubation, an equal volume of the 2× reaction mixture (consisting of DTT 50 μM and human insulin 0.32 mM) was added. Protein activity was evaluated by monitoring the increase in turbidity of the solutions at 600 nm.
(§2) In both assays, the inhibition constants were extrapolated by GraphPad Prism 8.0 software (GraphPad Software, San Diego, CA, USA), plotting the obtained data as logarithm dose–response curves.

Experiment [2] has as its target T2, PDIA3 (Homo sapiens, UniProt P30101).
T2 construct: The mature recombinant form (devoid of the N-terminal presence) of the human PDIA3 protein was expressed and purified; made in house
T2 sequence (P30101 25-505): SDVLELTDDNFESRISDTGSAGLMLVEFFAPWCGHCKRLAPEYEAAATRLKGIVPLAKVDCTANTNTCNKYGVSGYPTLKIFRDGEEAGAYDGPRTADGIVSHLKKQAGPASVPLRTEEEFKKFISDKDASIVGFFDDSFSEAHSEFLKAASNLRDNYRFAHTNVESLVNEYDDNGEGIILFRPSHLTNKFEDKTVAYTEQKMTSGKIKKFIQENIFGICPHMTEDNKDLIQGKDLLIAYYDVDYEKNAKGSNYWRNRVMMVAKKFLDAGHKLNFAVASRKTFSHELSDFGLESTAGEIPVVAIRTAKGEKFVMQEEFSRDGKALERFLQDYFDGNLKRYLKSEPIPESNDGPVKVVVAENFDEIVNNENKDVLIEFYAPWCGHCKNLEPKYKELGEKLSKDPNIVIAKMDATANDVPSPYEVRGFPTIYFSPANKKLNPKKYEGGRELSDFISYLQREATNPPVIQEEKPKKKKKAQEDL
Also on record: method as in Paglia et al. [40]. Conditions: reduced PDIA3; ref Paglia et al. [40]; cited from earlier work.

For experiment [3], the target named is T1, PDIA1. More on the design: method as in Paglia et al. [40]. Conditions: reduced PDIA1; ref Paglia et al. [40]; cited from earlier work.
Experiment [4] has as its system PDIA3. More on the design: method as in PMID 37686085. The settings on record: 30 µM, 24 h after treatment; ref [34]; cited from earlier work.
Experiment [5] deals with T2, PDIA3. The experiment in a line: Differential scanning fluorimetry (protein thermal shift). The class given is binding. On the procedure:
(§3) The effect of punicalin and punicalagin on the stability of both proteins was evaluated by differential scanning fluorimetry (DSF). Initially, PDIA1 and PDIA3 were incubated at 25 °C for 20 min with both substances at 5 µM and 20 µM concentrations. […] The reading was optimized at intervals of 0.2 °C every 5 s. Once the fluorescence profile was obtained, the data were analyzed with the GraphPad prism program, by either fitting data with a Boltzmann equation or calculating the first derivative. In DSF analyses, a gradual increase in fluorescence is observed, due to a conformational change in the protein, which reaches a maximum value and then decreases because of protein precipitation.
(§4) To evaluate Tm, we focused the attention on the main transition, and thus we fitted, with a Boltzmann equation, the data in the range of 25–55 °C for PDIA3 and in the range of 45–70 °C for PDIA1. Again, the two substances show a destabilizing effect, which was more evident for PDIA3 than for PDIA1. In fact, punicalagin and punicalin at a 20 µM concentration cause a shift of Tm of at least 6 °C in the case of PDIA3, while this is approximately 3 °C for PDIA1 (Figure 7).
(§5) Protein stability in the absence and presence of punicalagin/punicalin was tested by means of the fluorescence-based thermal stability assay or differential scanning fluorimetry (DSF) developed by Pantoliano and coworkers. DSF records the fluorescence emission signal from the binding of a dye (SYPRO orange) to the exposed hydrophobic patches upon protein unfolding. Fluorescence measurements were performed using a CFX96 Connect RT-PCR instrument (BioRad, Hercules, CA, USA). Aliquots of 18 μL of protein solution (2 μM), freshly diluted in Tris Buffered saline (50 mM TrisHCl, pH 8.0, 150 mM NaCl) containing 0.1 mM DTT, 0.2 mM EDTA, and 1: 1000 dilution of SYPRO Orange (50 mM stock solution in DMSO), were distributed in a 96-well plate. Sample wells were added with punicalagin or punicalin at a final concentration of 5 uM or 20 μM by adding 2 μL of a 10-fold concentrated freshly prepared stock solution. As control, the protein solution was added with 2 μL of the dilution buffer. A melting point analysis was recorded by increasing the temperature from 25 to 70 °C with an increment of 0.2 °C every 5 s and reading, at each temperature, the fluorescence in fluorescence resonance energy transfer mode (FRET). Each measure was the average of three sample well readings, and each DSF experiment was repeated at least three times. To calculate Tm values, DSF data from the melting curve were exported and fitted to a Boltzmann equation using GraphPad software. The effect of punicalagin and punicalin was evaluated comparing the Tm values in the presence and absence of each molecule.
For orientation: Differential scanning fluorimetry follows unfolding on heating by fluorescence.

Experiment [6] addresses T1, PDIA1. The experiment is described as above. The class given is binding. Conditions: PDIA1, compound 20 µM. On the procedure:
as §3, §4, §5

The target in experiment [7] is T2, PDIA3. Kind of experiment: Insulin turbidity assay, disulfide reductase activity. The settings on record: insulin substrate, PDIA3 1600 nM, reducing conditions. The format is biochemical. On the procedure:
as §1
PDI disulfide reductase activity was assayed by measuring the reduction of insulin catalyzed by PDIs with DTT. A 50 μM stock solution of each PDI was reduced using TCEP (5 mM final concentration) for 90 min at room temperature. Aliquots of the stock solution were diluted in the incubation mixture (PDIA1 1.6 µM and PDIA3 3.2 µM) containing sodium phosphate buffer (100 mM sodium phosphate, 2 mM EDTA, pH 7.0) added with punicalin/punicalagin (concentration ranging from 0 to 50 µM) and incubated at 37 °C for 1 h. After incubation, an equal volume of the 2× reaction mixture (consisting of DTT 50 μM and human insulin 0.32 mM) was added. Protein activity was evaluated by monitoring the increase in turbidity of the solutions at 600 nm.
as §2

T1 sequence (P07237 18-508): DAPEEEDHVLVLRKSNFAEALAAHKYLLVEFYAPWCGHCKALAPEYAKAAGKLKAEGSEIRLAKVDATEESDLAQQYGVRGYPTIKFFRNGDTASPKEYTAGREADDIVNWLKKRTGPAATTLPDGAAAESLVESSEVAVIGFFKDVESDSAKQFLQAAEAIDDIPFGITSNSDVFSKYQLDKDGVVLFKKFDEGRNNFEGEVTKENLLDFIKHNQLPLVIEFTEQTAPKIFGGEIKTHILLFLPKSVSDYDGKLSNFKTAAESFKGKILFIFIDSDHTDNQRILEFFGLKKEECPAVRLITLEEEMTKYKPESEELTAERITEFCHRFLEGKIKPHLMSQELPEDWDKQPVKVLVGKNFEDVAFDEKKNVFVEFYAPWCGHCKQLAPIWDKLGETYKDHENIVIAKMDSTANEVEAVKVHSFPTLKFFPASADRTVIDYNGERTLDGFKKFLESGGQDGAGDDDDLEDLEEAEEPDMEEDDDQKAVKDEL

For `O=C1O[C@H]2[C@@H]3OC(=O)c4cc(O)c(O)c(O)c4-c4c(O)c(O)c5oc(=O)c6c(c(O)c(O)c7oc(=O)c4c5c76)-c4c(cc(O)c(O)c4O)C(=O)OC[C@H]3OC(O)[C@@H]2OC(=O)c2cc(O)c(O)c(O)c2-c2c1cc(O)c(O)c2O` (mixture of isomers) [Punicalagin, punicalagin], the half-maximal inhibitory concentration (IC50) on PDIA1 [1] worked out at 13.7 µM; at PDIA3 [7] it was 8.8 µM. In addition, the “Stern–Volmer constant (KSV)” value at PDIA3 [2] was 157.1 ± 1.9 M^−1 × 10^3; at PDIA1 [3], 97.9 ± 2.1 M^−1 × 10^3. Besides, the “formation of PDIA3 protein aggregates” value with PDIA3 [4] was “induced the formation of protein aggregates”. For the same molecule, the “left shift of first transition (first-derivative graph)” value at PDIA3 [5] (PDIA3, compound 20 µM) was “about 3 °C”. Besides, the “shift towards lower temperature of second transition (first-derivative graph)” value at PDIA3 [5] (PDIA3, compound 20 µM) was “more than 10 °C”. The “shift of Tm (destabilizing, Boltzmann fit)” value at PDIA3 [5] (PDIA3, compound 20 µM, fit range 25–55 °C) is “at least 6 °C”; at PDIA1 [6] (fit range 45–70 °C), “approximately 3 °C”. The “Tm of PDIA3 after addition of compound” value on PDIA3 [5] (PDIA3 alone Tm 46 °C) is “below 40 °C”. Also, the “shift towards lower temperature of second main transition (first-derivative graph)” value at PDIA1 [6] is “about 5 °C”.

Usually IC50 stands for the point on the concentration scale where inhibition reaches its midpoint. A high value points to weaker potency in that assay.
